{
  "source": "paper PMC11393688",
  "about": "“Design and synthesis of new 1,2,4-oxadiazole/quinazoline-4-one hybrids with antiproliferative activity as multitargeted inhibitors” (Frontiers in Chemistry, 2024)",
  "key": {"[1]": {"test": "Cell viability, MTT test on normal cell line", "assay_type": "cell-based", "conditions": "human, MCF-10A mammary gland epithelial cells (normal cell line), MCF-10A normal cells, 4 days incubation", "method": "The human mammary gland epithelial (MCF-10A) normal cell line was used to test the viability of novel compounds 9a-o ([Mahmoud et al., 2022]; [Mekheimer et al., 2022]). After 4 days of incubation on MCF-10A cells, the cell viability of compounds 9a-o was determined using the MTT test.\nThe human mammary gland epithelial (MCF-10A) normal cell line was used to test the viability of compounds 9a-o ([Mahmoud et al., 2022]; [Mekheimer et al., 2022]). Refer to Supplementary Appendix A (Supplementary Material) for more details.\n4.2. Biological evaluation\n4.2.1. Cytotoxic activity using MTT Assay and evaluation of IC50\nMTT assay was carried out to study the effect of compounds on mammary epithelial cells (MCF-10A). The medium in which cells were propagated contained Dulbecco's modified Eagle's medium (DMEM)/ Ham's F-12 medium (1:1) supplemented with epidermal growth factor (20 ng/mL), hydrocortisone (500 ng/mL), insulin (10 μg/mL), 2 mM glutamine and 10% foetal calf serum.\nAfter every 2-3 days, the cells were passaged using trypsin ethylenediamine tetra acetic acid (EDTA). The cells were seeded at a density of 10^4 cells mL-1 in flat-bottomed culture plates containing 96 wells each. After 24 h, medium was removed from the plates and the compounds in (in 0.1% DMSO) were added (in 200 μL medium to yield a final concentration of 0.1% v/v) to the wells of plates. A single compound was designated with four wells followed by incubation of plates for 96h at 37°C. After incubation, medium was removed completely from the plates followed by addition of MTT (0.4 mg/mL in medium) to each well and subsequent incubation of plates for 3h. MTT (along with the medium) was removed and DMSO (150μL) was added to each well of the culture plates, followed by vertexing and subsequent measurement of absorbance (at 540 nm) using microplate reader. The data are shown as percentage inhibition of proliferation in comparison with controls containing 0.1% DMSO."}, "[2]": {"tested_on": "lung cancer (A-549) cell line", "test": "Antiproliferative MTT assay, A-549", "assay_type": "cell-based", "conditions": "Homo sapiens, A549, A-549 lung cancer cells, read-out: Antiproliferative activity IC50 ± SEM A-549", "method": "(§1) 4.2.1.2. Assay for antiproliferative effect\n(§2) To explore the antiproliferative potential of compounds MTT assay was performed according to previously reported procedure using different cell lines to explore the antiproliferative potential of […]\n(§3) calculate the total nuclear DNA, a fluorescent dye (propidium iodide, PI) is used which can attach to the DNA, thus offering a quick and precise technique. PI cannot pass through the cell membrane and its signal intensity can be considered as directly proportional to quantity of cellular DNA.\n(§4) Cells whose cell membranes are damaged or have changed permeability are counted as dead ones.\n(§5) The assay was performed by seeding the cells of different cell lines at a density of 3000-7500 cells/well (in 200µl medium) in culture plates followed by incubation for 24h at 37 °C in humidified 5% CO2/95% air atmospheric conditions. The medium was removed; the compounds were added to the plates at 10 µM concentrations (in 0.1% DMSO) in triplicates, followed by incubation for 48 h. DMSO (0.1%) was used as control. After incubation, medium was removed […]\n(§6) 80 °C, the plates were allowed to freeze for 24 h, followed by thawing at 25 °C. […]\n(§7) (Polar-Star BMG Tech) was used to record the readings at excitation and emission wavelengths of 530 and 620 nm for each well. The percentage cytotoxicity of compounds was calculated using […]\n(§8) Where ATC= Absorbance of treated cells and AC= Absorbance of control. Erlotinib was used as positive control in the assay."}, "[3]": {"tested_on": "breast cancer (MCF-7) cell line", "test": "Antiproliferative MTT assay, MCF-7", "assay_type": "cell-based", "conditions": "Homo sapiens, MCF7, MCF-7 breast cancer cells, read-out: Antiproliferative activity IC50 ± SEM MCF-7", "method": "as §1, §2, §3, §4, §5, §6, §7, §8"}, "[4]": {"tested_on": "pancreatic cancer (Panc-1) cell line", "test": "Antiproliferative MTT assay, Panc-1", "assay_type": "cell-based", "conditions": "Homo sapiens, Panc-1 pancreatic cancer cells, read-out: Antiproliferative activity IC50 ± SEM Panc-1", "method": "as §1, §2, §3, §4, §5, §6, §7, §8"}, "[5]": {"tested_on": "four human cancer cell lines (HT-29, Panc-1, A-549, MCF-7)", "test": "Average antiproliferative activity (GI50) over four cancer cell lines", "assay_type": "cell-based", "conditions": "average IC50 against the four cancer cell lines", "method": "as §1, §2, §3, §4, §5, §6, §7, §8"}, "[6]": {"tested_on": "colon cancer (HT-29) cell line", "test": "Antiproliferative MTT assay, HT-29", "assay_type": "cell-based", "conditions": "Homo sapiens, HT-29 colon cancer cells, read-out: Antiproliferative activity IC50 ± SEM HT-29"}},
  "data": [
    {"smiles": "O=c1c2ccccc2nc(SCc2nc(-c3ccccc3)no2)n1-c1ccccc1", "note": "[Compound 9a, 2-((3-Phenyl-1,2,4-oxadiazol-5-yl)methylthio)-3-phenylquinazolin-4(3H)-one]", "values": [
      {"measurement": "viability at 96 h, 50 µM", "setting": "[1]", "value": 90, "unit": "%"},
      {"measurement": "IC50", "setting": "[2]", "value": "46 ± 4", "unit": "nM"},
      {"measurement": "IC50", "setting": "[3]", "value": "50 ± 4", "unit": "nM"},
      {"measurement": "IC50", "setting": "[4]", "value": "48 ± 4", "unit": "nM"},
      {"measurement": "GI50", "setting": "[5]", "value": 48, "unit": "nM"},
      {"measurement": "melting point", "value": "162 to 164", "unit": "°C"},
      {"measurement": "IC50", "setting": "[6]", "value": "48 ± 4", "unit": "nM"}
    ]},
    {"smiles": "Cc1ccc(-n2c(SCc3nc(-c4ccccc4)no3)nc3ccccc3c2=O)cc1", "note": "[Compound 9d, 2-((3-Phenyl-1,2,4-oxadiazol-5-yl)methylthio)-3-p-tolylquinazolin-4(3H)-one]", "values": [
      {"measurement": "viability at 96 h, 50 µM", "setting": "[1]", "value": 90, "unit": "%"},
      {"measurement": "IC50", "setting": "[2]", "value": "54 ± 4", "unit": "nM"},
      {"measurement": "IC50", "setting": "[3]", "value": "58 ± 5", "unit": "nM"},
      {"measurement": "IC50", "setting": "[4]", "value": "54 ± 5", "unit": "nM"},
      {"measurement": "GI50", "setting": "[5]", "value": 55, "unit": "nM"},
      {"measurement": "melting point", "value": "168 to 170", "unit": "°C"},
      {"measurement": "IC50", "setting": "[6]", "value": "55 ± 5", "unit": "nM"}
    ]},
    {"smiles": "Cc1ccc(-n2c(SCc3nc(-c4ccc(Cl)cc4)no3)nc3ccccc3c2=O)cc1", "note": "[Compound 9e, 2-((3-(4-Chlorophenyl)-1,2,4-oxadiazol-5-yl)methylthio)-3-p-tolylquinazolin-4(3H)-one]", "values": [
      {"measurement": "viability at 96 h, 50 µM", "setting": "[1]", "value": 91, "unit": "%"},
      {"measurement": "IC50", "setting": "[2]", "value": "40 ± 3", "unit": "nM"},
      {"measurement": "IC50", "setting": "[3]", "value": "44 ± 4", "unit": "nM"},
      {"measurement": "IC50", "setting": "[4]", "value": "42 ± 4", "unit": "nM"},
      {"measurement": "GI50", "setting": "[5]", "value": 42, "unit": "nM"},
      {"measurement": "melting point", "value": "156 to 158", "unit": "°C"},
      {"measurement": "IC50", "setting": "[6]", "value": "42 ± 4", "unit": "nM"}
    ]},
    {"smiles": "COc1ccc(-c2noc(CSc3nc4ccccc4c(=O)n3-c3ccc(C)cc3)n2)cc1", "note": "[Compound 9f, 2-((3-(4-Methoxyphenyl)-1,2,4-oxadiazol-5-yl)methylthio)-3-p-tolylquinazolin-4(3H)-one]", "values": [
      {"measurement": "viability at 96 h, 50 µM", "setting": "[1]", "value": 92, "unit": "%"},
      {"measurement": "IC50", "setting": "[2]", "value": "50 ± 4", "unit": "nM"},
      {"measurement": "IC50", "setting": "[3]", "value": "53 ± 5", "unit": "nM"},
      {"measurement": "IC50", "setting": "[4]", "value": "52 ± 5", "unit": "nM"},
      {"measurement": "GI50", "setting": "[5]", "value": 52, "unit": "nM"},
      {"measurement": "melting point", "value": "165 to 167", "unit": "°C"},
      {"measurement": "IC50", "setting": "[6]", "value": "52 ± 5", "unit": "nM"}
    ]},
    {"smiles": "Cc1cccc(-n2c(SCc3nc(-c4ccccc4)no3)nc3ccccc3c2=O)c1", "note": "[Compound 9g, 2-((3-Phenyl-1,2,4-oxadiazol-5-yl)methylthio)-3-m-tolylquinazolin-4(3H)-one]", "values": [
      {"measurement": "viability at 96 h, 50 µM", "setting": "[1]", "value": 90, "unit": "%"},
      {"measurement": "IC50", "setting": "[2]", "value": "49 ± 4", "unit": "nM"},
      {"measurement": "IC50", "setting": "[3]", "value": "52 ± 5", "unit": "nM"},
      {"measurement": "IC50", "setting": "[4]", "value": "50 ± 5", "unit": "nM"},
      {"measurement": "GI50", "setting": "[5]", "value": 50, "unit": "nM"},
      {"measurement": "melting point", "value": "170 to 172", "unit": "°C"},
      {"measurement": "IC50", "setting": "[6]", "value": "50 ± 5", "unit": "nM"}
    ]},
    {"smiles": "COc1ccc(-c2noc(CSc3nc4ccccc4c(=O)n3-c3cccc(C)c3)n2)cc1", "note": "[Compound 9i, 2-((3-(4-Methoxyphenyl)-1,2,4-oxadiazol-5-yl)methylthio)-3-m-tolylquinazolin-4(3H)-one]", "values": [
      {"measurement": "viability at 96 h, 50 µM", "setting": "[1]", "value": 91, "unit": "%"},
      {"measurement": "IC50", "setting": "[2]", "value": "65 ± 6", "unit": "nM"},
      {"measurement": "IC50", "setting": "[3]", "value": "69 ± 6", "unit": "nM"},
      {"measurement": "IC50", "setting": "[4]", "value": "66 ± 6", "unit": "nM"},
      {"measurement": "GI50", "setting": "[5]", "value": 67, "unit": "nM"},
      {"measurement": "melting point", "value": "194 to 196", "unit": "°C"},
      {"measurement": "IC50", "setting": "[6]", "value": "68 ± 6", "unit": "nM"}
    ]}
  ]
}
